Test results taken from patent publication US20110263539A1, “SHIP 1 MODULATOR COMPOUNDS” (THE UNIVERSITY OF BRITISH COLUMBIA, priority 2006, published 2011).

Legend:
SHIP C2 domain [1] = experiment: Scintillation proximity assay, C2 domain; format: binding; conditions: [3H]-Compound 100, SPA beads
Method: Compound 100 was radiolabelled with tritium by GE Healthcare (Piscataway, N.J.) to a specific activity of 42 Ci/mmole. Copper chelate (His-Tag) YSi SPA Scintillation Beads (GE Healthcare, Piscataway, N.J.) were diluted in 0.25% BSA/TBS to 1.5 mg/mL and recombinant, His6-tagged protein added at the indicated concentrations: wild-type (1 μM), ΔC2 SHIP enzyme (1 pM) or C2 domain (10 nM). Protein was allowed to bind 1 h at 23° C., and 250 μg of beads were aliquoted per well of a 96-well plate. 5 μCi of [^3H]-Compound 100 was added per well, the plate gently agitated for 30 min and the amount of bead associated radioactivity quantified by counting in a Wallac BetaPlate plate scintillation counter.
Isolated recombinant, His6-tagged C2 domain was expressed and its PI-3,4-P2 binding ability was determined using protein lipid overlay assays. Purified C2 domain was incubated with membrane strips spotted with PI-3,4-P2 and bound protein detected using an anti-His6 antibody. As shown in FIG. 11C the C2 domain bound PI-3,4-P2 and this binding was inhibited by Compound 100, consistent with both Compound 100 and PI-3,4-P2 interacting with the C2 domain at a common binding site.

J774.1a macrophage cells = experiment: Macrophage TNF-α NO assay (Assay 3); format: cell-based; conditions: 10 μg/ml test compound, LPS, 24 hr, Griess reagent; note: key: a ‘+’ indicates a positive result for desired activity; a ‘−’ indicates a negative result for desired activity
Method: Assay 3) Macrophage TNF-α NO assay. J774.1a macrophage cells were treated with 10 μg/ml of test compound dissolved in solvent for 40 minutes prior to the addition of LPS. Culture supernatants were collected after 24 hr. for determination of NO concentration using the Griess reagent.

SHIP C2 domain [2] = experiment: Protein lipid overlay assay; format: binding; conditions: 4 μM Compound 100
Method: Protein lipid overlay (PLO) assays were performed essentially as described with minor modifications. Lyophilized phosphatidylinositol-3,4-bisphosphate diC16 (PIP2, Echelon Biosciences, Salt Lake City, Utah) was reconstituted in a 2:1.8 solution of methanol and water. PVDF membranes (Millipore, Missisauga, Ont) were initially wetted in methanol for 1 minute, and washed 3×5 min with water, and gently agitated in TBST buffer (20 mM Tris pH 7.5, 0.15 M NaCl (TBS) with 0.05% Tween 20) at 23° C. overnight. Treated membranes were air-dried and dilutions of reconstituted lipids were spotted in 1 μl aliquots to give the indicated amount of PIP2 per membrane spot. Membranes were dried completely and blocked with blocking buffer (3% BSA in TBS with 0.05% NaN3) for 1 h at 23° C. Purified, recombinant C2 domain was diluted into blocking buffer (5 μM final) and treated with 4 μM Compound 100 or EtOH control for 30 min at 23° C. prior to overnight incubation with the PIP2 spotted membranes. […] After washing, bound proteins were detected and quantified on a Li-Cor Odyssey scanner (Lincoln, Nebr.).
Isolated recombinant, His6-tagged C2 domain was expressed and its PI-3,4-P2 binding ability was determined using protein lipid overlay assays. Purified C2 domain was incubated with membrane strips spotted with PI-3,4-P2 and bound protein detected using an anti-His6 antibody. […]

[3] = test system: luciferase expressing OPM2 cells; experiment: In vivo Multiple Myeloma (MM) assay (Assay 8); design: species or system Mice; conditions: 50 mg/kg every 3 days, subcutaneous oil depot
Method: Assay 8) In vivo Multiple Myeloma (MM) assay. Mice were inoculated with at two sites each with 3×10^6 luciferase expressing OPM2 cells suspended in 50 μL of growth medium and 50 μL of Matrigel basement membrane matrix (Becton Dickenson; Bedford, Mass.). Tumors were injected subcutaneously in the upper and lower flanks of the mice and allowed to establish for 2 weeks. After 2 weeks, a test compound or control vehicle was administered in a subcutaneous oil depot at a dose of 50 mg/kg every 3 days.
Tumors were measured using bioluminescence imaging on the Xenogen IVIS 200. Mice received intra-peritoneal injections of 200 μL of D-luciferin at 3.75 mg/mL in sterile PBS. Mice were then anesthetized with isofluorane and imaged 15 minutes post-injection of luciferin. Quantification of tumor size was performed using the Living Image™ software.
MM Xenograft murine model. Mice were inoculated with at two sites each with 3×10^6 luciferase expressing OPM2 cells suspended in 50 μL of growth medium and 50 μL of Matrigel basement membrane matrix (Becton Dickenson; Bedford, Mass.). Tumors were injected subcutaneously in the upper and lower flanks of the mice and allowed to establish for 2 weeks. […]
Tumors were measured using bioluminescence imaging on the Xenogen IVIS 200. […] Quantification of tumor size was performed using the Living Image™ software. […]

[4] = test system: neutrophil myeloperoxidase (MPO) activity; experiment: Mouse acute cutaneous anaphylaxis model (Assay 5); format: in vivo, CD1 mice
Method: Assay 5) Mouse acute cutaneous anaphylaxis model. 6-8 week old CD1 mice
(§1) (University of British Columbia Animal Facility, Vancouver, BC) were sensitized to the hapten DNP by cutaneous application of 25 μL of 0.5% dinitrofluorobenzene (DNFB) (Sigma, Oakville, Ont) in acetone to the shaved abdomen of mice for two consecutive days. 24 hrs later, test substances (dissolved in 10 μL of 1:2 DMSO:MeOH) were painted on the right ear while the left ear received vehicle control. 30 min after drug application, DNFB was applied to both ears to induce mast cell degranulation. A 6 mm punch was taken from the ear and immediately frozen on dry ice for subsequent determination of neutrophil myeloperoxidase (MPO) activity.
as §1, with “Mouse acute cutaneous anaphylaxis model. 6-8 week old CD1 mice (University” for “(University”, “activity. Compound 100's ability to inhibit cutaneous anaphylaxis was assessed.” for “activity.”
Anaphylactic or allergic responses are mediated by allergen-induced degranulation of pre-sensitized mast cells. The mouse ear edema/cutaneous anaphylaxis model involves pre-sensitization of mice with the haptenizing agent dinitrofluorobenzene (DNFB). One week later the allergic reaction is elicited by painting DNFB onto the ears of the mice. The efficacy of potential anti-inflammatory compounds is tested by topical application of the test substance to one ear and comparing the resulting ear edema or inflammation of the two ears.

binding to C2 domain (SHIP C2 domain [1]): directly bind the C2 domain | binding of C2 domain to PI-3,4-P2 (SHIP C2 domain [2]): inhibited
SMILES: Cc1cc(O)cc2c1[C@]1(C)CCC3C(C)(C)CCC[C@]3(C)[C@H]1C2 (stereo partly drawn) [Compound 100]
Assay Number 3: Macrophage NO (J774.1a macrophage cells): + | Assay Number 8: In vivo Multiple Myeloma (MM) assay [3]: + | Assay Number 5: Mouse acute cutaneous anaphylaxis model ([4]; topical on ear, DNFB): + | allergen (DNFB)-induced inflammation ([4]; topically applied vs vehicle control-treated ear): dramatically inhibited
